Reference: patent publication US8946299B2, “Use of calixarenes associated with an antibiotic in the treatment of bacterial infections” (Universite de Lorraine, priority 2011, dated 2015)
Where “and” joins values, the source holds several entries; their conditions need not be identical. Equal entries are not always repeated.

How the values were obtained:
[1] = test system: MRSA strain having a resistance to the aminoglycosides and fluoroquinolones (SaR3); experiment: Chessboard technique: MICs alone and synergism of Cx1 combinations; format: cell-based, Staphylococcus aureus; conditions: n = 4; for MIC (antibiotic): antibiotic used alone, second figure of the cell
Description: (§1) Three reference strains were used, corresponding to those studied for the MICs and MBCs (Minimum Bactericidal Concentration): Escherichia coli ATCC 25922, Staphylococcus aureus ATCC 29213, Pseudomonas aeruginosa ATCC 27853. For each of these strains 3 corresponding clinical isolates were chosen, having various antibiotic-resistance profiles, routinely used in standard fashion: • EcR1, EcR2, EcR3; • SaR1, SaR3, SaR4; • PaR2, PaR3, PaR5.
(§2) 1.3. Procedure: Chessboard Technique
(§3) The bacterial suspension is transferred to a 15 mL Falcon tube, centrifuged for 10 min at 4500 g, then the pellet is re-suspended in 1 mL of sterile distilled water. Suitable dilutions are then prepared in order to obtain a bacterial inoculum between 5·10^5 and 5·10^6 CFU/mL.
(§4) The MICs of the antibiotics were previously determined for each strain, by the method of microdilution in a liquid medium (CLSI (Clinical and Laboratory Standards Institute), 2003).
(§5) The same procedure is followed for the Cx1. […] Thus 64 ATB/Cx1 combinations are obtained.
(§6) The final volume contained in each of the wells must be 100 μL. Two controls must be present on each plate: • column 1 and 12: medium control • column 2 and 11: medium+bacteria control
(§7) Cx1: […] in the wells of […], starting with the lowest concentration.
(§8) ATB: 25 μL in the wells of rows H to A (columns 3 to 11), starting with the lowest concentration.
(§9) 50 μL in each of the wells of columns 2 to 11.
(§10) D2: Reading the Turbidity at 540 Nm.
(§11) The FIC (Fractional Inhibitory Concentration Index) value is determined by the following formula:
(§12) [formula] MICA in combination MICA alone MICB in combination MICB alone
(§13) When FIC≦0.5, there is a synergistic effect between antibiotic A and antibiotic B.
(§14) When 0.5<FIC≦1, there is an additive effect between antibiotic A and antibiotic B.
(§15) When 1<FIC≦4, there is an indifferent effect between antibiotic A and antibiotic B.
(§16) When FIC>4, there is an antagonistic effect between antibiotic A and antibiotic B.
(§17) For each strain and each antibiotic/Cx1 combination, the experiments were repeated a minimum of 3 times.

[2] = test system: Staphylococcus aureus strain ATCC 29213 (wild type); experiment: as above; format: cell-based; conditions: for Initials MIC (antibiotic): antibiotic used alone, second figure of the cell
Description: as §1, §2, §3, §4, §5, §6, §7, §8, §9, §10, §11, §12, §13, §14, §15, §16, §17

[3] = test system: MRSA strain having a resistance to the aminoglycosides, fluoroquinolones, macrolides-lincosamides-synergistins and ofloxacin (SaR4); experiment: as above; format: cell-based, Staphylococcus aureus; conditions: n = 4; for MIC (antibiotic): antibiotic used alone, second figure of the cell
Description: as §1, §2, §3, §4, §5, §6, §7, §8, §9, §10, §11, §12, §13, §14, §15, §16, §17

[4] = test system: MRSA strain without associated resistance (SaR1); experiment: as above; format: cell-based, Staphylococcus aureus; conditions: n = 4; for MIC (antibiotic): antibiotic used alone, second figure of the cell
Description: as §1, §2, §3, §4, §5, §6, §7, §8, §9, §10, §11, §12, §13, §14, §15, §16, §17

[5] = test system: EcR1: Penicillinase-Producing Escherichia coli without Associated Resistance; experiment: Antibiogram by the disk diffusion technique; format: cell-based; conditions: for diameter in mm: Table A2, diameter; for Results (diameter): Table A1, category from diameter vs Dmin Dmax
Procedure: (§18) 5. Identification and Antibiogram 5.1 EcR1: Penicillinase-Producing Escherichia coli without Associated Resistance
(§19) The bacterial and antibiogram identification is carried out by the VITEK 2 system (bioMérieux) and by the disk diffusion technique.

[6] = test system: EcR1: Penicillinase-Producing Escherichia coli without Associated Resistance; experiment: Antibiogram, MIC by the VITEK 2 system; format: cell-based; conditions: Table A1, category from MIC
Procedure: as §18, §19

[7] = test system: ESBL-producing strain of Escherichia coli (EcR3); experiment: Chessboard technique: MICs alone and synergism of Cx1 combinations; format: cell-based; conditions: n = 4; for Initial MICs (antibiotic): antibiotic used alone, second figure of the cell
Description: as §1, §2, §3, §4, §5, §6, §7, §8, §9, §10, §11, §12, §13, §14, §15, §16, §17

[8] = test system: Escherichia coli strain ATCC 25922 (wild type); experiment: as above; format: cell-based; conditions: for Initial MICs (antibiotic): antibiotic used alone, second figure of the cell
Description: as §1, §2, §3, §4, §5, §6, §7, §8, §9, §10, §11, §12, §13, §14, §15, §16, §17

[9] = test system: cephalosporinase-hyperproducing strain of Escherichia coli (EcR2); experiment: as above; format: cell-based; conditions: n = 4; for Initial MICs (antibiotic): antibiotic used alone, second figure of the cell
Description: as §1, §2, §3, §4, §5, §6, §7, §8, §9, §10, §11, §12, §13, §14, §15, §16, §17

[10] = test system: penicillinase-producing strain of Escherichia coli without associated resistance (EcR1); experiment: as above; format: cell-based; conditions: n = 4; for Initial MICs (antibiotic): antibiotic used alone, second figure of the cell
Description: as §1, §2, §3, §4, §5, §6, §7, §8, §9, §10, §11, §12, §13, §14, §15, §16, §17

[11] = test system: Pseudomonas aeruginosa strain ATCC 27853 (wild type); experiment: as above; format: cell-based
Description: as §1, §2, §3, §4, §5, §6, §7, §8, §9, §10, §11, §12, §13, §14, §15, §16, §17

[12] = test system: Pseudomonas aeruginosa strain having a resistance to β-lactams (including the carbapenems), aminoglycosides, the trimethoprim-sulphamethoxazole combination and …; experiment: as above; format: cell-based; conditions: n = 4
Description: as §1, §2, §3, §4, §5, §6, §7, §8, §9, §10, §11, §12, §13, §14, §15, §16, §17

[13] = test system: mucoid strain of Pseudomonas aeruginosa having a resistance to rifampicin and the trimethoprim-sulphamethoxazole combination (PaR5); experiment: as above; format: cell-based; conditions: n = 4
Description: as §1, §2, §3, §4, §5, §6, §7, §8, §9, §10, §11, §12, §13, §14, §15, §16, §17

[14] = test system: Pseudomonas aeruginosa strain having a resistance to β-lactams, the trimethoprim-sulphamethoxazole combination and fosfomycin (PaR2); format: cell-based; conditions: n = 4
Description: as §1, §2, §3, §4, §5, §6, §7, §8, §9, §10, §11, §12, §13, §14, §15, §16, §17

[15] = test system: Escherichia coli, Staphylococcus aureus and Pseudomonas aeruginosa strains; experiment: Chessboard technique, summary over all strains and combinations tested; format: cell-based
Description: as §1, §2
The FIC (Fractional Inhibitory Concentration Index) value is determined by the following formula: […]
as §17

[16] = antibiotic used alone, second figure of the cell
[17] = Cx1 used alone, first figure of the cell
[18] = Cx1 used alone, first figure of the cell, n = 4

C[C@H]1COc2c(N3CCN(C)CC3)c(F)cc3c(=O)c(C(=O)O)cn1c23 [Levofloxacin]
MIC (antibiotic) [1]: 8/8 mg/L

CC(=O)NC[C@H]1CN(c2ccc(N3CCOCC3)c(F)c2)C(=O)O1 [Linezolid]
Initials MIC (antibiotic) ([2]; n = 4): 2 µg/mL | MIC (antibiotic) [1]: 2 mg/L | MIC (antibiotic) [3]: 2 µg/mL | MIC (antibiotic) [4]: 2 µg/mL

CN(C)c1ccc(O)c2c1C[C@H]1C[C@H]3[C@H](N(C)C)C(O)=C(C(N)=O)C(=O)[C@@]3(O)C(O)=C1C2=O [Minocycline]
diameter in mm [5]: 20 mm

CCn1cc(C(=O)O)c(=O)c2ccc(C)nc21 [Nalidixic acid]
Results (MIC) [6]: Susceptible

CCN[C@@H]1C[C@H](N)[C@@H](O[C@H]2OC(CN)=CC[C@H]2N)[C@H](O)[C@H]1O[C@H]1OC[C@](C)(O)[C@H](NC)[C@H]1O [Netilmicin]
Results (MIC) [6]: Susceptible | Results (diameter) [5]: Susceptible

CCn1cc(C(=O)O)c(=O)c2cc(F)c(N3CCNCC3)cc21 [Norfloxacin]
Results (MIC) [6]: Susceptible

CCN1CCN(C(=O)N[C@@H](C(=O)N[C@@H]2C(=O)N3[C@@H]2SC(C)(C)[C@@H]3C(=O)O)c2ccccc2)C(=O)C1=O [Piperacillin]
Initial MICs (antibiotic) [7]: 128 mg/L | Initial MICs (antibiotic) ([8]; n = 4): 2 mg/L | Initial MICs (antibiotic) [9]: 32 mg/L | Initial MICs (antibiotic) [10]: 256 mg/L | Results (MIC) [6]: Susceptible | Results (diameter) [5]: Intermediate

CO[C@H]1/C=C/O[C@@]2(C)Oc3c(C)c(O)c4c(O)c(c(/C=N/N5CCN(C)CC5)c(O)c4c3C2=O)NC(=O)/C(C)=C\C=C\[C@H](C)[C@H](O)[C@@H](C)[C@@H](O)[C@@H](C)[C@H](OC(C)=O)[C@@H]1C [Rifampicin]
Initial MICs (antibiotic) [7]: 4 mg/L | Initial MICs (antibiotic) ([8]; n = 4): 4/4 mg/L | MIC (antibiotic) ([11]; antibiotic used alone, second figure of the cell, n = 4): 64 µg/mL | MIC (antibiotic) [12, 16]: 32/32 mg/L | Initial MICs (antibiotic) [9]: 2/2 mg/L | MIC (antibiotic) [13, 16]: 16 µg/mL | Initial MICs (antibiotic) [10]: 4 mg/L | MIC (antibiotic) [14, 16]: 64 µg/mL | diameter in mm [5]: 16 mm

[H]/N=C(/N)N[C@H]1[C@H](O)[C@@H](O)[C@H](O[C@@H]2O[C@@H](C)[C@](O)(C=O)[C@H]2O[C@@H]2O[C@@H](CO)[C@H](O)[C@@H](O)[C@@H]2NC)[C@@H](N/C(N)=N\[H])[C@@H]1O [Streptomycin]
Initials MIC (antibiotic) ([2]; n = 4): 4 µg/mL | MIC (antibiotic) [1]: 4 mg/L | MIC (antibiotic) [3]: 4 µg/mL | MIC (antibiotic) [4]: 4 µg/mL | nature of the interaction between Cx1 and the antibiotic [15]: synergism

CC1(C)S[C@@H]2[C@H](NC(=O)[C@H](C(=O)O)c3ccsc3)C(=O)N2[C@H]1C(=O)O [Ticarcillin]
Results (MIC) [6]: Resistant | Results (diameter) [5]: Resistant

CN(C)c1cc(NC(=O)CNC(C)(C)C)c(O)c2c1C[C@H]1C[C@H]3[C@H](N(C)C)C(O)=C(C(N)=O)C(=O)[C@@]3(O)C(O)=C1C2=O [Tigecycline]
nature of the interaction between Cx1 and the antibiotic [15]: synergism

para-guanidinoethylcalix[4]arene [Cx1]
Initial MICs (Cx1) [7, 17]: 2 mg/L and 2/2 mg/L | Initial MICs (Cx1) ([8]; Cx1 alone, E. coli ATCC 25922): 4 mg/L | Initial MICs (Cx1) [8, 18]: 4 mg/L and 2 mg/L and 4/4 mg/L | Initial MICs (Cx1) ([11]; Cx1 alone, P. aeruginosa ATCC 27853): 32/32 mg/L and 32 mg/L | MIC (Cx1) [11, 18]: 32 µg/mL | MIC (Cx1) [12, 17]: 32 mg/L and 32/32 mg/L | Initial MICs (Cx1) ([2]; Cx1 alone, S. aureus ATCC 29213): 8 mg/L | Initials MIC (Cx1) [2, 18]: 8 mg/L and 8/8 mg/L | Initial MICs (Cx1) [9, 17]: 2 mg/L and 2/2 mg/L | MIC (Cx1) [13, 17]: 32/32 mg/L and 32 mg/L | Initial MICs (Cx1) [10, 17]: 2 mg/L | MIC (Cx1) [1, 17]: 8 mg/L and 8/8 mg/L | MIC (Cx1) [3, 17]: 8 µg/mL | MIC (Cx1) [4, 17]: 8 µg/mL | MIC (Cx1) [14, 17]: 32 µg/mL
